Laboratory results: publication PMC6100415, “Hepatic Metabolism of Sakuranetin and Its Modulating Effects on Cytochrome P450s and UDP-Glucuronosyltransferases” (Molecules : A Journal of Synthetic Chemistry and Natural …, 2018)
Like-named read-outs stand apart in the source and are kept apart here.

Assays:
Type in all cases: in vitro ADME
[1] = molecular target: T1, UGT1A1 (Homo sapiens, UniProt P22309); experiment: UGT inhibition in human liver microsomes, 17β-estradiol 3-O-glucuronidation (ESG); details: pH 7.4, probe 17β-estradiol (200 μM)
T1 construct: The typical incubation mixture contained human liver microsomes (0.5 mg/mL) along with SKN (10 μM); tissue BD Gentest; host or cells: human liver microsomes
T1 sequence (P22309 26-533): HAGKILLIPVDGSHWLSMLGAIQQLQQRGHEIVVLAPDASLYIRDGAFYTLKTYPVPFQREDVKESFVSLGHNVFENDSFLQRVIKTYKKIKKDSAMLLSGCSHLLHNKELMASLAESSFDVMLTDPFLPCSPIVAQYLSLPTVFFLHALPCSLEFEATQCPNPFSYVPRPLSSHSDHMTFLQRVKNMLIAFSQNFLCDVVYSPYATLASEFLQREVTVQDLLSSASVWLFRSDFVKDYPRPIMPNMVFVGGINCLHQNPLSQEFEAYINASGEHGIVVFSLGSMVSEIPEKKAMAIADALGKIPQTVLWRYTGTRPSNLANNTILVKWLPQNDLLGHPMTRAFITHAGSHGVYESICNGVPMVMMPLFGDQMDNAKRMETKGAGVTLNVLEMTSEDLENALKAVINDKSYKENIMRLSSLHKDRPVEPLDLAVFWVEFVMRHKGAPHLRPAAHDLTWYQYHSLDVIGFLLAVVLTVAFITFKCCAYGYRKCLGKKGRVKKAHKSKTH
Experimental: (§1) The formation of a glucuronide conjugate from an isozyme-specific substrate (200 μM, Table 5) was examined to determine UGT activity levels in human liver microsomes. The typical incubation mixture contained human liver microsomes (0.5 mg/mL) along with SKN (10 μM), and MgCl2 (10 mM) in 50 mM Tris-HCl buffer (pH 7.4). The metabolic reaction was initiated by adding UPDGA (2 mM) and stopped by adding an equal volume of ice-cold methanol. […] The conditions used for the operation and analysis of the HPLC-DAD and LC-ESI-MS are provided in the Supplementary Materials and Table S3.
(§2) The solvent flow rate was set at 0.2 mL/min, and the column temperature was set at 35 °C. The LTQ instrument was operated in negative ion electron spray mode at an ion spray voltage of −4.2 kV and a source temperature of 275 °C. The sheath gas flow rate was 35 arb, and the aux gas flow rate was 5 arb. The MS conditions used to detect glucuronides via selected ion monitoring scan mode are summarized in Supplementary Materials Table S3.

[2] = molecular target: T2, UGT1A3 (Homo sapiens, UniProt P35503); experiment: UGT inhibition in human liver microsomes, chenodeoxycholic acid 24-glucuronidation (CDCAG); details: pH 7.4, probe chenodeoxycholic acid (200 μM)
T2 construct: The typical incubation mixture contained human liver microsomes (0.5 mg/mL) along with SKN (10 μM); tissue BD Gentest; host or cells: human liver microsomes
T2 sequence (P35503 29-534): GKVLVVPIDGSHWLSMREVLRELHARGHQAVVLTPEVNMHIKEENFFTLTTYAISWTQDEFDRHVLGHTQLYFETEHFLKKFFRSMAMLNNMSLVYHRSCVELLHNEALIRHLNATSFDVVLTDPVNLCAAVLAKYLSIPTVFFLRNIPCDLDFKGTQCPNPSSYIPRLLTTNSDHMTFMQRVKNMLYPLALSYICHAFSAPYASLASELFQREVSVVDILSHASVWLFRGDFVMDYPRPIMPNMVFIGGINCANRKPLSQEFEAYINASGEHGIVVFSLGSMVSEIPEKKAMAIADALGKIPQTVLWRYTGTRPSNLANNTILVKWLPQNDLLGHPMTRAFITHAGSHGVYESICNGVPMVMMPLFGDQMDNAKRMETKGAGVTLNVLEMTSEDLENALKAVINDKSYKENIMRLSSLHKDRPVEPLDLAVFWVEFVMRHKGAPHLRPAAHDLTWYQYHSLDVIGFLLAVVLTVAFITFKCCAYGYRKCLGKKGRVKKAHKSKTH
Experimental: as §1, §2

[3] = molecular target: T3, UGT1A4 (Homo sapiens, UniProt P22310); experiment: UGT inhibition in human liver microsomes, trifluoperazine N-glucuronidation (TFPG); details: pH 7.4, probe trifluoperazine (200 μM)
T3 construct: The typical incubation mixture contained human liver microsomes (0.5 mg/mL) along with SKN (10 μM); tissue BD Gentest; host or cells: human liver microsomes
T3 sequence (P22310 29-534): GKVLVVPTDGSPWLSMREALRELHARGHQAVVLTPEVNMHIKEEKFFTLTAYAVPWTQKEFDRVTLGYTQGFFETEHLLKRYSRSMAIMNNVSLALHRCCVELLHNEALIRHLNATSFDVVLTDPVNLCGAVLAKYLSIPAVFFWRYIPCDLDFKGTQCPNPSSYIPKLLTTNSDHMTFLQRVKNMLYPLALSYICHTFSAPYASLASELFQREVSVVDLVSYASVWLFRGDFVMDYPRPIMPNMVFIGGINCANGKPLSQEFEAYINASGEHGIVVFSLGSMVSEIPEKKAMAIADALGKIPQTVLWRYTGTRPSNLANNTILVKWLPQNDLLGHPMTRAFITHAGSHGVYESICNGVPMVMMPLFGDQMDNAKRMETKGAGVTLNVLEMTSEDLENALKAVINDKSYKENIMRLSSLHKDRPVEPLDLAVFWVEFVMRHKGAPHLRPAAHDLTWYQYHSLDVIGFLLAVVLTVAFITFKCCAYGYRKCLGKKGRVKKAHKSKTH
Experimental: as §1, §2

[4] = molecular target: T4, UGT1A9 (Homo sapiens, UniProt O60656); experiment: UGT inhibition in human liver microsomes, mycophenolic acid O-glucuronidation (MPAG); details: for inhibition at 10 μM: human, pH 7.4, probe mycophenolic acid (200 μM), O-glucuronidation (MPAG), UGT1A9, MPAG
T4 construct: The typical incubation mixture contained human liver microsomes (0.5 mg/mL) along with SKN (10 μM); tissue BD Gentest; host or cells: human liver microsomes
T4 sequence (O60656 26-530): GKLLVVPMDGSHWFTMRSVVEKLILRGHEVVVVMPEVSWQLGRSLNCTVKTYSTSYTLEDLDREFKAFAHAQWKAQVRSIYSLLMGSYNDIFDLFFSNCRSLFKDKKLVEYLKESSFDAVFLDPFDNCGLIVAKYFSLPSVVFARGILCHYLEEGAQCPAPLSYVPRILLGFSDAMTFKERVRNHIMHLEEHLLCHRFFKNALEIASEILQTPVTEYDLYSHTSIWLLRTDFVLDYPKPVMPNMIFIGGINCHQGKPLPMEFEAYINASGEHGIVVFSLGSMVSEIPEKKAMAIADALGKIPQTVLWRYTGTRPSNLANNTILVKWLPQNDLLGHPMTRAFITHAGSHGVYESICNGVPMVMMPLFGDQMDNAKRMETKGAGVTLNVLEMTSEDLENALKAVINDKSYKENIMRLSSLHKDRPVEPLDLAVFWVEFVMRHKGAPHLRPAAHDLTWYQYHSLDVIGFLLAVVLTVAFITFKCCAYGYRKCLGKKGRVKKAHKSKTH
Experimental: as §1, §2

[5] = inhibitor 10 µM, human liver microsomes 0.5 mg/mL, read-out: Inhibition (%)
[6] = human liver microsomes, inhibitor 10 µM, human liver microsomes 0.5 mg/mL, read-out: Inhibition (%)
[7] = SKN 10 μM, 15 min pre-incubation, read-out: % Inhibition in Pre-Incubation
[8] = SKN 10 μM, read-out: % Inhibition in Co-Incubation

**Q.** O=C1C[C@@H](c2ccc(O)c(O)c2)Oc2cc(O)cc(O)c21 [Eriodictyol, 3′-hydroxynaringenin] was tested. Which inhibition at 10 μM [1, 5] did it give?
**A.** Its inhibition at 10 μM is 20.8 ± 3.4%.

**Q.** And the inhibition at 10 μM [2, 5]?
**A.** The inhibition at 10 μM was 15.7 ± 2.9%.

**Q.** What about the inhibition at 10 μM [3, 5] of the same molecule?
**A.** The inhibition at 10 μM was 13.7 ± 3.8%.

**Q.** What about the inhibition at 10 μM [4, 6] of the same molecule?
**A.** Its inhibition at 10 μM is 2.9 ± 0.8%.

**Q.** What does the source list for O=C1C[C@@H](c2ccc(O)cc2)Oc2cc(O)cc(O)c21 [Naringenin]?
**A.** inhibition at 10 μM [1, 5]: 10.8 ± 3%; inhibition at 10 μM [2, 5]: 2 ± 0.9%; inhibition at 10 μM [3, 5]: 9.6 ± 3.1%; inhibition at 10 μM [4, 6]: 2 ± 2.1%

**Q.** Which results are given for COc1cc(O)c2c(c1)OC(c1ccc(O)cc1)CC2=O (racemic) [SKN, (+/−) 7-O-methylnaringenin]?
**A.** inhibition at 10 μM [1, 7]: 1.5 ± 2.1%; inhibition at 10 μM [1, 8]: 0.4 ± 0.5%; inhibition at 10 μM [2, 7]: 0.8 ± 0.2%; inhibition at 10 μM [2, 8]: -0.6 ± 0.9%; inhibition at 10 μM [3, 7]: 8.7 ± 1.4%; inhibition at 10 μM [3, 8]: 15.3 ± 3.8%; fold higher inhibition of UGT1A9 in the pre-incubation sample than in the co-incubation sample ([4]; SKN, human liver microsomes): 1.5 fold; inhibition at 10 μM ([4]; human liver microsomes, SKN 10 μM, 15 min pre-incubation, read-out: % Inhibition in Pre-Incubation): 3.5 ± 2.6%; inhibition at 10 μM ([4]; human liver microsomes, SKN 10 μM, human liver microsomes, read-out: % Inhibition in Co-Incubation): -0.6 ± 3.1%; mode of UGT1A9 inhibition ([4]; pre-incubation 15 min, 10-fold dilution): irreversible UGT1A9 inhibitor
